Test results from patent US6841661B2, “Glycopeptide antibacterial compounds, compositions containing same and methods of using same” (Princeton Univerisity, priority 1999, dated 2005).
In brackets after ≈: the same amount, converted by molar mass.

Tests used:
MRSA CL 3033 = assay: In vitro MIC panel assay (NCCLS broth microdilution); format: cell-based; settings: Staphylococcus aureus
From the text: (§1) National Committee for Clinical Laboratory Standards (NCCLS) guidelines [Methods for Dilution Antimicrobial Susceptibility Tests for Bacteria that Grow Aerobically-Fourth Edition; Approved Standard (NCCLS Document M7-A4, January 1997)] are used to establish the assay, although variations are made to optimize the published method according to the specific needs of the present investigation.
(§2) The test panel currently includes eight enterococci and 13 staphylococci, which are selected based upon their antibiotic susceptibility profiles. The methicillin-sensitive Staphylococcus aureus (MSSA) strain MB2985 (Smith isolate) is used to assesses the potential for serum protein binding of the compounds. The paired Gram-negative strains ASP #49 (envA-) and ASP #50 (envA+) (M. Salvatore/N. Lee) are included to judge membrane effects. Table 3 presents a detailed description of the strains included in the panel, including some of the sources of the strains of bacteria.
(§3) The glycopeptide antibiotic teicoplanin is included whenever possible.
(§4) TSB, containing 10% HS* for vancomycin intermediate S. aurcus/methicillin-resistant S. aureus (VISA/MRSA) strains, is inoculated from an appropriate source (frozen broth or agar slant) and grown approximately 17 hr at 35° C. with shaking at 220 rpm. Cultures are grown in tubes with a volume of 5 ml for enterococci and 2 ml for all other strains.
(§5) Four milliliter (4 ml) overnight culture is added to 36 ml physiological saline to obtain tenfold dilutions (enterococci). Overnight culture (0.4 ml) is added to 39.6 ml saline to obtain 100-fold dilutions (all strains except enterococci). Diluted cultures are maintained on ice until time of inoculation of test plates.
(§6) The number of CFU/mL is determined on BHI agar plates, although this is not done routinely because titers of overnight cultures are relatively constant. The test media include: • BHI for enterococci and VISA/MRSA; • MH II (i.e., cation-adjusted Mueller-Hinton broth) for MRS, MSS and E. coli.; • MH II+HSA for MSSA is prepared as follows: • a. 2×MHII+86mg/ml HSA • b. Dissolve 4.3 g HSA in 50 ml autoclaved 2x MH II. • c. pH to 7.0 by adding 2M MOPS, sodium. • d. Filter sterilize using 0.22 μm Coming cellulose acetate filter, used because of reported low protein binding. • e. 1×MH II+43 mg/ml HSA • f. Dilute the 2×medium twofold and filter as above. 5.8.6. Preparation of Test Plates
(§7) Using a Denley liquid handling system (or similar automatic device), 100 μ1×medium is added to each well in columns 2-12 of a 96-well microtiter dish. Using a multichannel pipettor, 100 μl 2×medium is added to each well in column 1. Plates may be filled on the day prior to assay, wrapped in plastic bags and refrigerated.
(§8) Vancomycin, Schering 29482, and teicoplanin are prepared on a weight per volume basis using 10 mM 3-(N-morpholino)propane-sulfonic acid (MOPS) buffer pH 7. Test compounds are received in solution in appropriate solvent (typically as 1 mg/ml in DMSO) or are dissolved in appropriate solvent prior to further dilution in 10 mM MOPS buffer, ph7. Consistent with NCCLS guidelines, antibiotics are handled aseptically but are not otherwise sterilized.
(§9) 100 μl appropriately diluted antibiotic solution is added to the first well of the designated row of the 96-well microtiter dish and serially diluted by twofold across the row using the Denley liquid handling system. With the aid of a Dynatech NEC 2000 inoculator, each well of the microtiter dish is inoculated with 1.5 μl diluted overnight culture, yielding approximately 1-5×10^6 CFU/ml for enterococci and approximately 3-7×10^5 CFU/ml for all other strains. Dishes are placed in stacks of no more than five, wrapped in plastic bags and incubated at 35° C. • Indication of result(s) type (% INH, IC50, Zone size, etc.) • MIC=minimum inhibitory concentration ps 5.8.9. Interpretation of the Results on the Basis of Activity […]

E. coli ASP #50 (envA+) = assay: as above; format: cell-based; settings: Escherichia coli
From the text: as §1, §2, §3, §4, §5, §6, §7, §8, §9

[1] = tested on: E. faecium CL 5242 (VanA); assay: microbe, parasite or virus in culture; format: cell-based; settings: for MIC, CL5242: E. faecium CL 5242 (VanA)
Method in brief: (§10)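 Twofold broth microdilution per modified NCCLS M7-A4, 35 °C. Enterococci and VISA/MRSA in BHI (VISA/MRSA precultured in TSB + 10% HS), E. coli in MH II. Inocula ~1-5×10^6 CFU/ml for enterococci, ~3-7×10^5 CFU/ml otherwise. MIC is the lowest concentration with no visible growth, read at 18-20 hr (E. coli) or 22-24 hr.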

MRSA MH 76 = assay: In vitro MIC panel assay (NCCLS broth microdilution); format: cell-based, Staphylococcus aureus; settings: Staphylococcus aureus, MRSA
From the text: as §1, §2
The glycopeptide antibiotic teicoplanin is included whenever possible. […]
The number of CFU/mL is determined on BHI agar plates, although this is not done routinely because titers of overnight cultures are relatively constant. […]

% Plasma Bound = format: in vitro ADME
[2] = tested on: E. faecalis CL 4877 (VanB); assay: microbe, parasite or virus in culture; format: cell-based; settings: for MIC, CL4877: E. faecalis CL 4877 (VanB)
Method in brief: as §10

[3] = tested on: Staphylococcus aureus strain MB2985; assay: In vivo mouse methicillin-sensitive Staphylococcus aureus septicemia protection; parameters: species or system ICR female mice
Protocol: Selected compounds of the invention are tested in an in vivo mouse model. Single dose subcutaneous antibiotic protection from septicemic infections is measured as described by Gill, C. J., J. J. Jackson, L. Gerckens, B. Pelak, R. Thompson, J. Sundelof, H. Kropp and H. Rosen. Antimicrob. Agents Chemother. 42:1996-2001 (1998). Survival is monitored for seven days. ED50's and LD50's are determined by the method of Knudsen and Curtis. J. Am. Stat. Assoc. 42:282-296 (1947). Septicemia is induced in 20 gram ICR (derived from CD-I) female mice by intraperitoneal infection with Staphylococcus aureus strain MB2985. Infection is given i.p. in Brain Heart Broth (BHB) at an infectious inoculum of 1.8×10^7 cfu/mouse. Drug is administered subcutaneously immediately after the infection is initiated.

S. aureus MB 2985 = assay: MIC by microdilution in Mueller-Hinton broth (in vivo study); format: cell-based; settings: Staphylococcus aureus, MB2985, inoculum 1.4 × 10^5 cfu/mL in cation adjusted MHB, read-out: MIC
Protocol: The MIC is determined by microdilution in Mueller-Hinton broth (MHB) according to the National Committee for Clinical Laboratory Standards guidelines after incubation for 24 hours. Enterococci are tested in cation-supplemented Mueller-Hinton broth at 1.4×10^5 cfu/ml. MIC is defined as the lowest concentration of antibiotic, which inhibits visible growth.

[4] = tested on: E. faecium CL 5053 (VanA); assay: microbe, parasite or virus in culture; format: cell-based; settings: for MIC, CL5053: E. faecium CL 5053 (VanA)
Method in brief: as §10

[5] = tested on: E. faecium CL 4931 (VanA); assay: microbe, parasite or virus in culture; format: cell-based; settings: for MIC, CL4931: E. faecium CL 4931 (VanA)
Method in brief: as §10

[6] = mouse septicemia, S. aureus 2985 i.p. 1.8 × 10^7 cfu/mouse, single s.c. dose at 0 hr, survival seven days

Question: With `CN[C@H](CC(C)C)C(=O)N[C@H]1C(=O)N[C@@H](CC(N)=O)C(=O)N[C@H]2C(=O)N[C@H]3C(=O)N[C@H](C(=O)N[C@H](C(=O)O)c4cc(O)cc(O)c4-c4cc3ccc4O)[C@H](O)c3ccc(c(Cl)c3)Oc3cc2cc(c3O[C@@H]2O[C@H](CO)[C@@H](O)[C@H](O)[C@H]2O[C@H]2C[C@](C)(N)[C@H](O)[C@H](C)O2)Oc2ccc(cc2Cl)[C@H]1O` [Vancomycin, vancomycin, reference compound] as the molecule, how does the MIC (MRSA CL 3033) read?
Answer: 0.5 to 1 µg/mL (≈ 0.345 to 0.69 µM)

Question: And the MIC (E. coli ASP #50 (envA+))?
Answer: 256 µg/mL (≈ 177 µM)

Question: What about the MIC ([1]; Enterococcus faecium) of the same molecule?
Answer: 128 µg/mL (≈ 88.3 µM)

Question: What about the MIC, CL5242 ([1]; Table 9) of the same molecule?
Answer: 512 µg/mL (≈ 353 µM)

Question: And the MIC, CL5242 ([1]; Table 10)?
Answer: 512 µg/mL (≈ 353 µM)

Question: And the “CL5242 (in vitro testing)” value ([1]; Tables 7 and 8, unit not given)?
Answer: 512

Question: And the MIC (MRSA MH 76)?
Answer: 1 µg/mL (≈ 0.69 µM)

Question: What about the “% Plasma Bound” value (% Plasma Bound) of the same molecule?
Answer: 55%

Question: What about the MIC ([2]; Enterococcus faecalis) of the same molecule?
Answer: 2050 µg/mL (≈ 1410 µM)

Question: What about the MIC, CL4877 ([2]; Table 9) of the same molecule?
Answer: 2050 µg/mL (≈ 1410 µM)

Question: What about the MIC, CL4877 ([2]; Table 10) of the same molecule?
Answer: 2050 µg/mL (≈ 1410 µM)

Question: What about the “CL4877 (in vitro testing)” value ([2]; Tables 7 and 8, unit not given) of the same molecule?
Answer: 2048

Question: What about the ED50/MIC ([3]; S. aureus 2985, ratio of s.c. ED50 to MIC) of the same molecule?
Answer: 2.33

Question: What about the ED50 ([3]; Staphylococcus aureus, MB2985, mouse septicemia, S. aureus 2985 i.p. 1.8 × 10^7 cfu/mouse, single s.c. dose at 0 hr, survival seven days) of the same molecule?
Answer: 1.17 mg/kg

Question: And the “ED0 (s.c.)” value [3, 6]?
Answer: ≦0.195 mg/kg

Question: What about the “ED100 (s.c.)” value [3, 6] of the same molecule?
Answer: 3.125 mg/kg

Question: And the MIC (S. aureus MB 2985)?
Answer: 0.5 µg/mL (≈ 0.345 µM)

Question: What about the MIC ([4]; Enterococcus faecium) of the same molecule?
Answer: 2050 µg/mL (≈ 1410 µM)

Question: And the MIC, CL5053 ([4]; Table 9)?
Answer: 2050 µg/mL (≈ 1410 µM)

Question: What about the MIC, CL5053 ([4]; Table 10) of the same molecule?
Answer: 2050 µg/mL (≈ 1410 µM)

Question: And the “CL5053 (in vitro testing)” value ([4]; Tables 7 and 8, unit not given)?
Answer: 2048

Question: What about the MIC ([5]; Enterococcus faecium) of the same molecule?
Answer: 2050 µg/mL (≈ 1410 µM)

Question: And the MIC, CL4931 ([5]; Table 9)?
Answer: 2050 µg/mL (≈ 1410 µM)

Question: What about the MIC, CL4931 ([5]; Table 10) of the same molecule?
Answer: 2050 µg/mL (≈ 1410 µM)

Question: And the “CL4931 (in vitro testing)” value ([5]; Tables 7 and 8, unit not given)?
Answer: 2048
